In PubChem BioAssay (NCI):
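All cell lines were grown in 96-well plates and treated with compound for 48 hours. GI50 is the concentration that inhibits growth by half. Definition used: TGI = concentration required for complete inhibition of growth.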

Columns and labels:
Test in all cases: inhibition of tumour cell growth, NCI panel, 48 h
[1] = system: 786-0 renal
[2] = system: HCC-2998 colon
[3] = system: K-562 leukemia
[4] = system: LOX IMVI melanoma
[5] = system: MALME-3M melanoma
[6] = system: OVCAR-8 ovarian
[7] = system: PC-3 prostate
[8] = system: SF-295 CNS
[9] = system: SW-620 colon
[10] = system: UACC-62 melanoma

Compound	GI50 [1]	TGI [1]	GI50 [2]	TGI [2]	GI50 [3]	TGI [3]	GI50 [4]	TGI [4]	GI50 [5]	TGI [5]	GI50 [6]	TGI [6]	GI50 [7]	GI50 [8]	TGI [8]	GI50 [9]	TGI [9]	GI50 [10]	TGI [7]	TGI [10]
COc1ccc(-n2nc(C(=O)NCC(=O)Nc3nc4cc(OC)ccc4s3)c3ccccc3c2=O)cc1	1.96 µM	8.19 µM	0.589 µM	7.89 µM	> 37.7 µM	> 100 µM	0.413 µM	1.97 µM	0.589 µM	2.8 µM	0.533 µM	2 µM	1.26 µM	0.346 µM	1.62 µM	0.66 µM	> 100 µM	1.76 µM	–	–
O=C1Nc2cc(-c3ccc(O)cc3)ccc2/C1=C/c1ccc[nH]1	0.396 µM	4.04 µM	0.511 µM	> 100 µM	0.0335 µM	> 75.9 µM	0.0481 µM	9.77 µM	0.474 µM	5.28 µM	0.524 µM	> 100 µM	0.416 µM	0.266 µM	> 40.5 µM	0.0746 µM	> 100 µM	0.049 µM	> 25.8 µM	10.9 µM
NC1=C(/C(N)=N/O)C(c2ccccc2)c2ccc3ccccc3c2O1 (stereo unspecified)	0.513 µM	> 58 µM	0.729 µM	15.8 µM	0.145 µM	> 100 µM	0.621 µM	17.2 µM	2.29 µM	> 76.1 µM	0.725 µM	> 92.9 µM	0.291 µM	0.321 µM	7.06 µM	0.243 µM	> 100 µM	0.112 µM	> 100 µM	15.2 µM
COc1cc(NC(=O)c2cc3ccccc3cc2O)c(OC)cc1Cl	2.86 µM	9.18 µM	2.68 µM	7.72 µM	1.84 µM	–	2.47 µM	> 100 µM	0.335 µM	2.87 µM	2.84 µM	> 32.8 µM	1.56 µM	1.8 µM	4.54 µM	3.08 µM	> 34.5 µM	1.35 µM	4.46 µM	5.65 µM
COc1ccc2c(ccc3oc([N+](=O)[O-])cc32)c1	0.218 µM	0.667 µM	0.177 µM	0.418 µM	0.0647 µM	6.14 µM	0.0551 µM	0.312 µM	0.137 µM	0.314 µM	0.18 µM	1.2 µM	0.305 µM	0.302 µM	1.9 µM	0.178 µM	10.8 µM	0.158 µM	3.63 µM	0.333 µM
COc1cc(-c2cn(-c3ccc(F)cc3)c(=O)[nH]2)cc(OC)c1OC	> 100 µM	> 100 µM	> 100 µM	> 100 µM	> 100 µM	> 100 µM	> 100 µM	> 100 µM	> 100 µM	> 100 µM	> 100 µM	> 100 µM	> 100 µM	> 100 µM	> 100 µM	> 100 µM	> 100 µM	> 100 µM	> 100 µM	> 100 µM
CCOC(=O)CC1C(CNC(=O)NC)OC(n2cnc3c(NC(=O)Nc4ccccc4)ncnc32)C1O[Si](C)(C)C(C)(C)C (stereo unspecified)	2 µM	5.21 µM	> 100 µM	> 100 µM	3.59 µM	32.9 µM	5.46 µM	> 100 µM	10.3 µM	> 100 µM	4.92 µM	77.2 µM	2.25 µM	5.73 µM	> 100 µM	4.8 µM	28.4 µM	> 100 µM	4.85 µM	> 100 µM
COC(=O)C[C@@H]1CC=CC(=O)/C1=C(O)/C=C/c1ccccc1	0.519 µM	1.56 µM	1.72 µM	3.25 µM	0.364 µM	–	0.172 µM	0.332 µM	1.56 µM	3.33 µM	0.602 µM	3.76 µM	0.856 µM	2.05 µM	4.42 µM	0.338 µM	1.33 µM	1.42 µM	3.76 µM	3.98 µM
Nc1n[nH]c2cc(F)c([C@@H]3Nc4c(F)cc5[nH]ncc5c4[C@H]4C5CCC(C5)[C@@H]34)cc12 (stereo partly specified)	0.211 µM	7.85 µM	0.118 µM	4.5 µM	0.11 µM	12.7 µM	0.144 µM	4.41 µM	0.948 µM	14.3 µM	0.136 µM	15.2 µM	0.149 µM	0.0971 µM	3.82 µM	0.141 µM	6.72 µM	0.162 µM	8.04 µM	6.77 µM
COc1ccccc1C(=O)Nc1ccc(Cl)c(C(=O)OC(C)C)c1	–	> 100 µM	–	> 100 µM	–	> 100 µM	–	> 62.3 µM	–	> 100 µM	–	> 100 µM	–	–	> 100 µM	–	> 100 µM	–	> 100 µM	> 63.4 µM
COc1ccccc1CNC(=O)/C=C/c1ccc(O)c(O)c1	76.1 µM	> 100 µM	34.6 µM	> 100 µM	39.6 µM	> 100 µM	26.3 µM	> 100 µM	50.3 µM	> 100 µM	75.7 µM	> 100 µM	> 100 µM	> 100 µM	> 100 µM	> 100 µM	> 100 µM	34.8 µM	> 100 µM	> 100 µM
C=C(C)[C@@H]1CC[C@]2(COC(=O)c3ccccc3C(=O)O)CC[C@]3(C)[C@H](CC[C@@H]4[C@@]5(C)CC[C@H](OC(=O)c6ccccc6C(=O)O)C(C)(C)[C@@H]5CC[C@]43C)[C@@H]12	31.6 µM	> 100 µM	74.3 µM	> 100 µM	31.7 µM	> 100 µM	24.6 µM	> 100 µM	60.8 µM	> 100 µM	42.6 µM	> 100 µM	34.6 µM	24.1 µM	> 100 µM	97.7 µM	> 100 µM	16.6 µM	> 100 µM	> 100 µM
